Data: patent publication US9610285B2, “Compositions for controlling food intake and uses therefor” (UNIVERSITY OF FLORIDA RESEARCH FOUNDATION, INCORPORATED, priority 2011, dated 2017)
Marks after values point to notes of the source that are not given here.

Experiments:
Type in all cases: in vivo, rat
Male Sprague-Dawley rats [1] = assay: Palatable food intake following drug injections in binge-eating rats (Example 2); details: for Effect on palatable food (fat) intake, in words / Effect on palatable food (sugar) intake, in words / Effect on palatable food (sugar-fat) intake, in words: one-way ANOVA over saline, low and high dose
Description: (§1) Male Sprague-Dawley rats, 250-300 g at the onset of the experiment, were obtained from Taconic Farms (Germantown, N.Y., USA). Rats were housed individually on a 12-h reversed light/dark cycle and given 1 wk to acclimate before diet training began.
(§2) The rats were divided into groups (n=10/group) matched for body weight and assigned to one of the following dietary conditions: (1) Binge Sugar, (2) Binge Fat or (3) Binge Sugar-Fat. All rats received palatable diets and standard rodent chow (LabDiet #5001, PMI Nutrition International, Richmond, Ind., USA; 10% fat, 20% protein, 70% carbohydrate, 3.02 kcal/g) for 12 h/day, starting 4 h after the onset of the dark cycle. Water was available ad libitum.
(§3) All palatable foods were mixed in the laboratory. The Binge Sugar group had access to a 10% (w/v) sucrose solution (Domino® Granulated Pure Cane Sugar, dissolved in tap water, 0.4 kcal/mL), the Binge Fat group had access to a 35% (w/v) fat emulsion (3.1 kcal/mL) and the Binge Sugar-Fat group had access to a 10% (w/v) sugar solution and 35% (w/v) fat emulsion (3.5 kcal/mL). Both emulsions were made with Wesson® Pure Vegetable Oil in tap water and 0.6% (w/v) Emplex, a commercially available emulsifier (American Ingredients Company, Kansas City, Mo., USA). Palatable food intakes were recorded daily. Chow intake was recorded weekly. Body weights were taken at the beginning and end of the 21-day diet period.
(§4) After 21 days on these diets, drug testing began. During testing, diet regimens were maintained. Approximately 3.5 h into the dark cycle, animals were weighed and intraperitoneal (i.p.) injections of drug were given (according to the schedule below). 30 min later (4 h into the dark cycle) palatable food and chow were made available to the rats. For the first 3 days, rats were acclimated to handling and daily vehicle injections (0.9% saline, Hospira, Lake Forest, Ill., USA, i.p. 1 mL/kg). For days 4-16 of drug testing, either vehicle or drug was alternatively administered, starting with drug on day 4. […] Intake of palatable food and chow was measured hourly after injection for 4 h and again at the end of the 12-h access period.
(§5) Palatable food and standard chow intakes following saline injections between days 4-16 were averaged. All data were analyzed using one-way ANOVAs with post hoc Multiple Comparisons, when appropriate. In Tables 4-7, values having the same letter superscript are statistically different from one another.

rats = assay: Binge eating rats, palatable food and chow intake (Example 1, FIGS. 1-5); details: drug alone, i.p., figure legends
Description: Baclofen (at 1.0 and 1.8 mg/kg, administered i.p.)
Baclofen+naltrexone (mixed low and mixed high)
1. Binge Sugar (10% sucrose solution, w/v)
2. Binge Fat (35% oil emulsion, w/v)
3. Binge Sugar/Fat (10% sucrose, 35% oil emulsion, w/v)
Groups of animals (rats) were maintained on their diets for 3 weeks to establish stable binge eating behavior. After this period of time, the rats were administered three days of daily i.p. injections of saline (to acclimate to the injection procedure), and sugar/chow intake was measured after the first hour of access and then hourly for the next 3 hours, as well as at the end of the 12-h access period. After this three-day period, rats were given baclofen+naloxone, and measurements taken as described above. Other dosage amounts of baclofen and naloxone were tested, as were the effects of these compounds alone (with measurements being performed as described above). Vehicle injections were performed between the various tests in order to allow for suitable clearance of compounds from the animals. […] Thus, the treatment appears ideally suited for food addicts, hedonic overeaters and changes food choice but not appetite.

Male Sprague-Dawley rats [2] = assay: Standard chow intake following drug injections in binge-eating rats (Example 2); details: for Effect on standard chow intake, in words: one-way ANOVA over saline, low and high dose
Description: as §1, §2, §3, §4, §5

Male Sprague-Dawley rats [3] = assay: Total caloric intake following drug injections in binge-eating rats (Example 2); details: for Effect on total caloric intake, in words: one-way ANOVA over saline, low and high dose
Description: as §1, §2, §3, §4, §5

[4] = Binge Fat group, 1 h, high dose (naltrexone 1.0 mg/kg, baclofen 1.8 mg/kg, or both, i.p.)
[5] = Binge Fat group, 1 h, low dose (naltrexone 0.1 mg/kg, baclofen 1.0 mg/kg, or both, i.p.)
[6] = Binge Fat group, 12 h, high dose (naltrexone 1.0 mg/kg, baclofen 1.8 mg/kg, or both, i.p.)
[7] = Binge Fat group, 12 h, low dose (naltrexone 0.1 mg/kg, baclofen 1.0 mg/kg, or both, i.p.)
[8] = Binge Sugar group, 1 h, high dose (naltrexone 1.0 mg/kg, baclofen 1.8 mg/kg, or both, i.p.)
[9] = Binge Sugar group, 1 h, low dose (naltrexone 0.1 mg/kg, baclofen 1.0 mg/kg, or both, i.p.)
[10] = Binge Sugar group, 12 h, high dose (naltrexone 1.0 mg/kg, baclofen 1.8 mg/kg, or both, i.p.)
[11] = Binge Sugar group, 12 h, low dose (naltrexone 0.1 mg/kg, baclofen 1.0 mg/kg, or both, i.p.)
[12] = Binge Sugar-Fat group, 1 h, high dose (naltrexone 1.0 mg/kg, baclofen 1.8 mg/kg, or both, i.p.)
[13] = Binge Sugar-Fat group, 1 h, low dose (naltrexone 0.1 mg/kg, baclofen 1.0 mg/kg, or both, i.p.)
[14] = Binge Sugar-Fat group, 12 h, high dose (naltrexone 1.0 mg/kg, baclofen 1.8 mg/kg, or both, i.p.)
[15] = Binge Sugar-Fat group, 12 h, low dose (naltrexone 0.1 mg/kg, baclofen 1.0 mg/kg, or both, i.p.)

Compound: NC[C@H](CC(=O)O)c1ccc(Cl)cc1 [Baclofen, R-baclofen]
- 1-H Palatable Food Intake (Kcal) (Male Sprague-Dawley rats [1]; [4]): 6.5 ± 2.0^c,d Kcal
- Palatable food intake as a percent of intake after saline injections, 1-H Intake (%) (Male Sprague-Dawley rats [1]; [4]): 38%
- 1-H Palatable Food Intake (Kcal) (Male Sprague-Dawley rats [1]; [5]): 17.9 ± 2.4^d Kcal
- Palatable food intake as a percent of intake after saline injections, 1-H Intake (%) (Male Sprague-Dawley rats [1]; [5]): 106%
- Effect on palatable food (fat) intake, in words (Male Sprague-Dawley rats [1]; Binge Fat group, 1 h): decreased
- 12-H Palatable Food Intake (Kcal) (Male Sprague-Dawley rats [1]; [6]): 32.6 ± 4.9^e,f Kcal
- Palatable food intake as a percent of intake after saline injections, 12-H Intake (%) (Male Sprague-Dawley rats [1]; [6]): 56%
- 12-H Palatable Food Intake (Kcal) (Male Sprague-Dawley rats [1]; [7]): 54.5 ± 4.5^f Kcal
- Palatable food intake as a percent of intake after saline injections, 12-H Intake (%) (Male Sprague-Dawley rats [1]; [7]): 93%
- Effect on palatable food (fat) intake, in words (Male Sprague-Dawley rats [1]; Binge Fat group, 12 h): decreased
- 1-H Palatable Food Intake (Male Sprague-Dawley rats [1]; [8]): 2.7 ± 0.5 kcal
- Palatable food intake as a percent of intake after saline injections, 1-H Intake (%) (Male Sprague-Dawley rats [1]; [8]): 96%
- 1-H Palatable Food Intake (Male Sprague-Dawley rats [1]; [9]): 3.6 ± 0.8 kcal
- Palatable food intake as a percent of intake after saline injections, 1-H Intake (%) (Male Sprague-Dawley rats [1]; [9]): 131%
- Effect on palatable food (sugar) intake, in words (Male Sprague-Dawley rats [1]; Binge Sugar group, 1 h): no effect
- 12-H Palatable Food Intake (Kcal) (Male Sprague-Dawley rats [1]; [10]): 11.4 ± 2.4^ Kcal
- Palatable food intake as a percent of intake after saline injections, 12-H Intake (%) (Male Sprague-Dawley rats [1]; [10]): 90%
- 12-H Palatable Food Intake (Male Sprague-Dawley rats [1]; [11]): 11.3 ± 2.5 kcal
- Palatable food intake as a percent of intake after saline injections, 12-H Intake (%) (Male Sprague-Dawley rats [1]; [11]): 88%
- Effect on palatable food (sugar) intake, in words (Male Sprague-Dawley rats [1]; Binge Sugar group, 12 h): no effect
- 1-H Palatable Food Intake (Kcal) (Male Sprague-Dawley rats [1]; [12]): 8.6 ± 1.6^j,k Kcal
- Palatable food intake as a percent of intake after saline injections, 1-H Intake (%) (Male Sprague-Dawley rats [1]; [12]): 37%
- 1-H Palatable Food Intake (Kcal) (Male Sprague-Dawley rats [1]; [13]): 23.5 ± 3.9^j Kcal
- Palatable food intake as a percent of intake after saline injections, 1-H Intake (%) (Male Sprague-Dawley rats [1]; [13]): 100%
- Effect on palatable food (sugar-fat) intake, in words (Male Sprague-Dawley rats [1]; Binge Sugar-Fat group, 1 h): significantly decreased
- 12-H Palatable Food Intake (Kcal) (Male Sprague-Dawley rats [1]; [14]): 57.4 ± 4.1^p Kcal
- Palatable food intake as a percent of intake after saline injections, 12-H Intake (%) (Male Sprague-Dawley rats [1]; [14]): 75%
- 12-H Palatable Food Intake (Male Sprague-Dawley rats [1]; [15]): 64.9 ± 6.6 kcal
- Palatable food intake as a percent of intake after saline injections, 12-H Intake (%) (Male Sprague-Dawley rats [1]; [15]): 85%
- Effect on palatable food (sugar-fat) intake, in words (Male Sprague-Dawley rats [1]; Binge Sugar-Fat group, 12 h): suppressed intake
- Effect on intake of oil-containing palatable foods (rats; oil containing groups (Binge Fat, Binge Sugar/Fat)): reduces intake
- Effect on binge eating of sugar (rats; sugar-binging rats): no effect
- 1-H Chow Intake (Male Sprague-Dawley rats [2]; [4]): 10.6 ± 1.0 kcal
- 1-H Chow Intake (Male Sprague-Dawley rats [2]; [5]): 12.2 ± 1.7 kcal
- 12-H Chow Intake (Male Sprague-Dawley rats [2]; [6]): 35.0 ± 5.0 kcal
- 12-H Chow Intake (Male Sprague-Dawley rats [2]; [7]): 34.1 ± 3.3 kcal
- 1-H Chow Intake (Male Sprague-Dawley rats [2]; [8]): 19.3 ± 3.4 kcal
- 1-H Chow Intake (Male Sprague-Dawley rats [2]; [9]): 23.0 ± 1.5 kcal
- 12-H Chow Intake (Male Sprague-Dawley rats [2]; [10]): 62.5 ± 3.8 kcal
- 12-H Chow Intake (Kcal) (Male Sprague-Dawley rats [2]; [11]): 73.5 ± 4.5^c Kcal
- 1-H Chow Intake (Kcal) (Male Sprague-Dawley rats [2]; [12]): 6.3 ± 1.0^i Kcal
- 1-H Chow Intake (Kcal) (Male Sprague-Dawley rats [2]; [13]): 11.3 ± 1.7^i Kcal
- Effect on standard chow intake, in words (Male Sprague-Dawley rats [2]; Binge Sugar-Fat group, 1 h): less chow intake at the high dose compared to the low dose
- 12-H Chow Intake (Male Sprague-Dawley rats [2]; [14]): 24.1 ± 3.1 kcal
- 12-H Chow Intake (Male Sprague-Dawley rats [2]; [15]): 24.6 ± 2.2 kcal
- Effect on standard chow intake, in words (Male Sprague-Dawley rats [2]; Fat group, 1 h): no effect
- Effect on standard chow intake, in words (Male Sprague-Dawley rats [2]; Fat group, 12 h): no effect
- Effect on standard chow intake, in words (Male Sprague-Dawley rats [2]; Sugar group, 1 h): no effect
- Effect on standard chow intake, in words (Male Sprague-Dawley rats [2]; Sugar group, 12 h): stimulated chow intake
- 1-H Total Caloric Intake (Kcal) (Male Sprague-Dawley rats [3]; [4]): 17.0 ± 3.0^e,f Kcal
- 1-H Total Caloric Intake (Kcal) (Male Sprague-Dawley rats [3]; [5]): 30.1 ± 4.1^f Kcal
- 12-H Total Caloric Intake (Kcal) (Male Sprague-Dawley rats [3]; [6]): 67.7 ± 9.9^g Kcal
- 12-H Total Caloric Intake (Male Sprague-Dawley rats [3]; [7]): 88.6 ± 7.8 kcal
- 1-H Total Caloric Intake (Male Sprague-Dawley rats [3]; [8]): 21.9 ± 4.4 kcal
- 1-H Total Caloric Intake (Male Sprague-Dawley rats [3]; [9]): 26.7 ± 2.3 kcal
- 12-H Total Caloric Intake (Male Sprague-Dawley rats [3]; [10]): 74.0 ± 6.3 kcal
- 12-H Total Caloric Intake (Male Sprague-Dawley rats [3]; [11]): 84.8 ± 7.0 kcal
- 1-H Total Caloric Intake (Kcal) (Male Sprague-Dawley rats [3]; [12]): 15.0 ± 2.6^k,m Kcal
- 1-H Total Caloric Intake (Kcal) (Male Sprague-Dawley rats [3]; [13]): 34.8 ± 5.6^m Kcal
- 12-H Total Caloric Intake (Male Sprague-Dawley rats [3]; [14]): 81.4 ± 7.3 kcal
- 12-H Total Caloric Intake (Male Sprague-Dawley rats [3]; [15]): 89.5 ± 8.8 kcal
- Effect on total caloric intake, in words (Male Sprague-Dawley rats [3]; Fat group, 1 h): significantly reduced
- Effect on total caloric intake, in words (Male Sprague-Dawley rats [3]; Fat group, 12 h): significantly reduced
- Effect on total caloric intake, in words (Male Sprague-Dawley rats [3]; Sugar group, 1 h): no effect
- Effect on total caloric intake, in words (Male Sprague-Dawley rats [3]; Sugar group, 12 h): no effect
- Effect on total caloric intake, in words (Male Sprague-Dawley rats [3]; Sugar-Fat group, 1 h): reduced
- Effect on total caloric intake, in words (Male Sprague-Dawley rats [3]; Sugar-Fat group, 12 h): not apparent
